Among the test systems are CCRF-CEM leukemia; HCT-116 colon; HL-60(TB) leukemia; IGROV1 ovarian; RXF 393 renal; SF-295 CNS; SN12C renal; SR leukemia; U251 CNS; UACC-257 melanoma.
Holding throughout (assay): DTP human tumour cell line panel, 48 h

Molecules are shown by their SMILES.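 Test compounds were applied to cells in 96-well plates for 48 hours at 5 doses. GI50 marks 50% less growth. TGI is the concentration that stops growth completely.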

In PubChem BioAssay (NCI) one finds GI50 and TGI data, which are given here for ten compounds.

For the compound `CC[n+]1ccc2c(c1)C(=O)c1nccc3c1c-2nc1ccccc13`, the GI50 was 1.39 µM in the experiment on CCRF-CEM leukemia; 1.1 µM in the experiment with HCT-116 colon; 5.79 µM with HL-60(TB) leukemia; 1.76 µM with IGROV1 ovarian; 0.93 µM in the experiment with RXF 393 renal; 0.634 µM in the experiment on SF-295 CNS. The GI50 in the experiment on SN12C renal is 0.142 µM; in the experiment with SR leukemia, 0.339 µM; with U251 CNS it was 0.35 µM; in the experiment on UACC-257 melanoma, 3.42 µM. The TGI in the experiment with CCRF-CEM leukemia is 14.4 µM; with HCT-116 colon it was 7.18 µM; in the experiment with HL-60(TB) leukemia, 16.9 µM; in the experiment with IGROV1 ovarian, 10.9 µM; in the experiment on RXF 393 renal it was 3.68 µM; with SF-295 CNS it was 3.76 µM. The TGI in the experiment on SN12C renal came out at 0.66 µM; with SR leukemia it was 12.4 µM; in the experiment with U251 CNS, 1.28 µM; with UACC-257 melanoma, 9.06 µM.
Consider `COc1ccc(CNC(=O)COc2ccc(/C=N/Nc3nc4ccccc4s3)cc2)cc1`, for which the GI50 with CCRF-CEM leukemia was above 100 µM; with HCT-116 colon, 2.25 µM; in the experiment on HL-60(TB) leukemia it was above 100 µM; with IGROV1 ovarian, 1.69 µM; in the experiment on RXF 393 renal it was 1.75 µM; in the experiment with SF-295 CNS, 3.25 µM. The GI50 was 2.84 µM in the experiment on SN12C renal, 3.05 µM with SR leukemia, 1.73 µM in the experiment with U251 CNS and 4.2 µM with UACC-257 melanoma. The TGI with CCRF-CEM leukemia is above 100 µM; in the experiment with HCT-116 colon it was 6.76 µM; in the experiment with HL-60(TB) leukemia it was above 100 µM; in the experiment with IGROV1 ovarian, 6.73 µM; with RXF 393 renal it was 3.76 µM; in the experiment on SF-295 CNS, 11.2 µM. For the same compound, the TGI in the experiment with SN12C renal was above 100 µM; with SR leukemia, above 100 µM; in the experiment on U251 CNS, 5.43 µM; in the experiment on UACC-257 melanoma, above 100 µM.
Regarding `CC1(C)N=C(N)N=C(N)N1c1ccc(CCCCc2ccc(S(=O)(=O)F)cc2Cl)c(Cl)c1`, the concentration for total growth inhibition (TGI) amounted to 8.28 µM with CCRF-CEM leukemia; 140 µM in the experiment on HCT-116 colon; 11.6 µM in the experiment on HL-60(TB) leukemia; 106 µM in the experiment with IGROV1 ovarian; 187 µM in the experiment on RXF 393 renal; 192 µM with SF-295 CNS. Besides, the concentration for total growth inhibition (TGI) with SN12C renal was 90.3 µM; with SR leukemia, above 500 µM; with U251 CNS, 53.2 µM; in the experiment with UACC-257 melanoma, 64 µM.
With `CCOC(=O)CCCO`, the TGI in the experiment on CCRF-CEM leukemia, with HL-60(TB) leukemia, in the experiment on IGROV1 ovarian, in the experiment with RXF 393 renal, in the experiment on SF-295 CNS and in the experiment on SN12C renal was above 100 µM in each case. Further, the TGI in the experiment with SR leukemia, in the experiment on U251 CNS and in the experiment on UACC-257 melanoma was above 100 µM throughout.
For `NC1(CCCCCCCCCCC(=O)O)CNCCNCCNCCNC1`, the TGI in the experiment with CCRF-CEM leukemia was above 100 µM; in the experiment on HCT-116 colon it was 81.2 µM; in the experiment with HL-60(TB) leukemia, 47.5 µM; in the experiment with IGROV1 ovarian it was above 100 µM; with RXF 393 renal, above 100 µM; with SF-295 CNS it was above 100 µM. Also, the TGI with SN12C renal was above 100 µM; in the experiment on SR leukemia it was 67.2 µM; with UACC-257 melanoma, above 100 µM.
As for `COc1cc2c(c(OC)c1OC)-c1ccc(NCc3ccccc3)c(=O)cc1[C@@H](NC(C)=O)CC2`, the GI50 is 0.34 µM with CCRF-CEM leukemia; 0.419 µM in the experiment on HCT-116 colon; 0.353 µM in the experiment on HL-60(TB) leukemia; 0.595 µM with IGROV1 ovarian; 0.617 µM in the experiment with SF-295 CNS; 0.629 µM in the experiment with SN12C renal. For the same compound, the GI50 with SR leukemia is 0.436 µM; in the experiment with U251 CNS, 0.368 µM; with UACC-257 melanoma, 0.671 µM. Besides, the total growth inhibition concentration (TGI) was above 100 µM in the experiment on CCRF-CEM leukemia; above 100 µM in the experiment with HCT-116 colon; 16.8 µM in the experiment with IGROV1 ovarian; 18.3 µM in the experiment on SF-295 CNS; 45.3 µM in the experiment on SN12C renal; above 44.3 µM with SR leukemia. Moreover, the TGI with U251 CNS is 11.8 µM; in the experiment on UACC-257 melanoma, 37.5 µM.
For the compound `ClCc1ccccc1CSc1ncnc2nc[nH]c12`, the GI50 in the experiment with CCRF-CEM leukemia, in the experiment on HCT-116 colon, in the experiment with IGROV1 ovarian, in the experiment with RXF 393 renal, in the experiment with SF-295 CNS and with SN12C renal was above 60 µM each time. Moreover, the GI50 in the experiment on SR leukemia, in the experiment with U251 CNS and with UACC-257 melanoma was above 60 µM throughout. Also, the TGI in the experiment on CCRF-CEM leukemia, with HCT-116 colon, in the experiment on IGROV1 ovarian, in the experiment with RXF 393 renal, with SF-295 CNS and in the experiment with SN12C renal was above 60 µM in each case. The TGI in the experiment on SR leukemia, in the experiment with U251 CNS and in the experiment with UACC-257 melanoma was above 60 µM in each case.
Take `CN(C)S(=O)(=O)Nc1ccccn1`: the TGI in the experiment with HCT-116 colon, in the experiment with HL-60(TB) leukemia, with IGROV1 ovarian, with RXF 393 renal, in the experiment with SF-295 CNS and in the experiment with SN12C renal was above 100 µM throughout. Further, the TGI in the experiment with SR leukemia, in the experiment with U251 CNS and in the experiment on UACC-257 melanoma was above 100 µM throughout.
Regarding `CCOC(=O)C(=O)N1C(C)=C(C(=O)OCC)CC(C(=O)OCC)=C1C`, the TGI in the experiment on CCRF-CEM leukemia, with HCT-116 colon, in the experiment on HL-60(TB) leukemia, in the experiment with IGROV1 ovarian, in the experiment with RXF 393 renal and with SF-295 CNS was above 100 µM throughout. Moreover, the TGI in the experiment with SN12C renal, with SR leukemia and in the experiment on UACC-257 melanoma was above 100 µM throughout.
As to `CCn1c(=O)c2c3cc(O)ccc3oc2c2ccc(O)cc21`, the TGI with CCRF-CEM leukemia is above 100 µM; with IGROV1 ovarian, above 100 µM; in the experiment with RXF 393 renal, above 100 µM; in the experiment with SF-295 CNS, above 100 µM; in the experiment with SN12C renal, above 100 µM; in the experiment with SR leukemia, 63.5 µM. Further, the TGI in the experiment with U251 CNS and in the experiment on UACC-257 melanoma was above 100 µM throughout.
